Assay results: patent US7317007B2, “Benzothiazole derivatives with activity as adenosine receptor ligands” (Hoffmann-La Roche Inc., priority 2000, dated 2008)
Where a name gives a salt, the structure may show the parent alone.

Biological target: T1, human adenosine A2A receptor (Homo sapiens, UniProt P29274)
T1 construct: expressed in transfected cells; host or cells: CHO cells, Semliki Forest virus expression system; washed membrane pellet used
Experiment: [3H]-SCH-58261 binding assay at the human adenosine A2A receptor
Conditions: read-out: pKi value (converted)
Protocol: Human Adenosine A2A Receptor
The human adenosine A2A receptor was recombinantly expressed in chinese hamster ovary (CHO) cells using the semliki forest virus expression system. Cells were harvested, washed twice by centrifugation, homogenised and again washed by centrifugation. The final washed membrane pellet was suspended in a Tris (50 mM) buffer containing 120 mM NaCl, 5 mM KCl, 2 mM CaCl2 and 10 mM MgCl2 (pH 7.4) (buffer A). The [^3H]-SCH-58261 (Dionisotti et al., 1997, Br J Pharmacol 121, 353; 1 nM) binding assay was carried out in 96-well plates in the presence of 2.5 μg of membrane protein, 0.5 mg of Ysi-poly-1-lysine SPA beads and 0.1 U adenosine deaminase in a final volume of 200 μl of buffer A. Non-specific binding was defined using xanthine amine congener (XAC; 2 μM). Compounds were tested at 10 concentrations from 10 μM-0.3 nM. All assays were conducted in duplicate and repeated at least two times. Assay plates were incubated for 1 hour at room temperature before centrifugation and then bound ligand determined using a Packard Topcount scintillation counter. IC50 values were calculated using a non-linear curve fitting program and Ki values calculated using the Cheng-Prussoff equation.

T1 sequence (P29274 whole entry): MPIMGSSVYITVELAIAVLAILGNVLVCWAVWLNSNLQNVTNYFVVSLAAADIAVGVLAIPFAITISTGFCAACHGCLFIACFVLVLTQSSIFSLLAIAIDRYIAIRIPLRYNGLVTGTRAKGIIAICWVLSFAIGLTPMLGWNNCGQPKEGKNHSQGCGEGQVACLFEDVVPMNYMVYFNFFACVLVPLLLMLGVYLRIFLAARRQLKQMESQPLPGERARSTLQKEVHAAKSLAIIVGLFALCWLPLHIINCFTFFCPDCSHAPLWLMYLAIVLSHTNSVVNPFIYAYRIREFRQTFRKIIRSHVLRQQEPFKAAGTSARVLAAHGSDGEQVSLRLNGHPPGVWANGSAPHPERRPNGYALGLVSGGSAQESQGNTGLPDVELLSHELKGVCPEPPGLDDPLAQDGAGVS

SMILES | Ki
COc1ccc(-c2csc(N3CCN(C)CC3)n2)c2sc(NC(=O)c3ccc(F)cc3)nc12 [Example 221, 4-Fluoro-N-{4-methoxy-7-[2-(4-methyl-piperazin-1-yl)-thiazol-4-yl]-benzothiazol-2-yl}-benzamide] | 2 nM
COc1ccc(-c2ccccc2)c2sc(NC(=O)c3ccncc3)nc12 [Example 36, N-(4-Methoxy-7-phenyl-benzothiazol-2-yl)-isonicotinamide] | 0.794 nM
COc1ccc(-c2ccccc2)c2sc(NC(=O)c3ccc(CNCCO)cc3)nc12 [Example 92, 4-[(2-Hydroxy-ethylamino)-methyl]-N-(4-methoxy-7-phenyl-benzothiazol-2-yl)-benzamide hydrochloride salt (1:1)] | 1.26 nM
COc1ccc(-c2ccccc2)c2sc(NC(=O)c3ccc(CNCc4cccnc4)cc3)nc12 [Example 107, N-(4-Methoxy-7-phenyl-benzothiazol-2-yl)-4-{[(pyridin-3-ylmethyl)-amino]-methyl}-benzamide hydrochloride salt (1:2)] | 1.58 nM
COC(=O)Nc1nc2c(OC)ccc(-c3csc(-c4ccc(C)nc4)n3)c2s1 [Example 201, {4-Methoxy-7-[2-(6-methyl-pyridin-3-yl)-thiazol-4-yl]-benzothiazol-2-yl}-carbamic acid methyl ester] | 2.51 nM
CCOCCN(CC)Cc1ccc(C(=O)Nc2nc3c(OC)ccc(N4CCOCC4)c3s2)cc1 [Example 301, 4-{[(2-Ethoxy-ethyl)-ethyl-amino]-methyl}-N-(4-methoxy-7-morpholin-4-yl-benzothiazol-2-yl)-benzamide] | 3.16 nM
COCCNCc1ccc(C(=O)Nc2nc3c(OC)ccc(-c4ccccc4)c3s2)cc1 [Example 91, 4-[(2-Methoxy-ethylamino)-methyl]-N-(4-methoxy-7-phenyl-benzothiazol-2-yl)-benzamide hydrochloride salt (1:1)] | 1.58 nM
CNCc1cc(C(=O)Nc2nc3c(OC)ccc(N4CCOCC4)c3s2)ccc1Cl [Example 280, 4-Chloro-N-(4-methoxy-7-morpholin-4-yl-benzothiazol-2-yl)-3-methylaminomethyl-benzamide] | 2 nM

Test system: not given
Experiment: not given
Conditions: not given

SMILES | melting point
COc1ccc(-c2cccs2)c2sc(NC(=O)N3CCOCC3)nc12 [Example 263, Morpholine-4-carboxylic acid (4-methoxy-7-thiophen-2-yl-benzothiazol-2-yl)-amide] | 175 to 182 °C (dec.)
COc1ccc(-c2cccs2)c2sc(NC(=O)c3ccc(F)cc3)nc12 [Example 220, 4-Fluoro-N-(4-methoxy-7-thiophen-2-yl-benzothiazol-2-yl)-benzamide] | 242 to 250 °C
COCCN(C)Cc1ccc(C(=O)Nc2nc3c(OC)ccc(-c4csc(NC(c5ccccc5)(c5ccccc5)c5ccccc5)n4)c3s2)cc1 [Example 236, 4-{[(2-Methoxy-ethyl)-methyl-amino]-methyl}-N-{4-methoxy-7-[2-(trityl-amino)-thiazol-4-yl]-benzothiazol-2-yl}-benzamide] | 119 to 128 °C
COc1ccc(-c2csc(C)n2)c2sc(NC(=O)c3ccc(CCl)cc3)nc12 [Example 233, 4-Chloromethyl-N-[4-methoxy-7-(2-methyl-thiazol-4-yl)-benzothiazol-2-yl]-benzamide] | 140 to 145 °C
COc1ccc(-c2csc(C)n2)c2sc(NC(=O)N3CCN(C)CC3)nc12 [Example 267, 4-Methyl-piperazine-1-carboxylic acid [4-methoxy-7-(2-methyl-thiazol-4-yl)-benzothiazol-2-yl]-amide] | 179 to 181 °C
COc1ccc(-c2csc(N3CCCC3)n2)c2sc(NC(=O)c3ccnc(C)c3)nc12 [Example 255, N-[4-Methoxy-7-(2-pyrrolidin-1-yl-thiazol-4-yl)-benzothiazol-2-yl]-2-methyl-isonicotinamide] | 195 to 215 °C
COc1ccc(-c2csc(-c3ccc(C)nc3)n2)c2sc(NC(=O)c3ccc(CCl)cc3)nc12 [Example 228, 4-Chloromethyl-N-{4-methoxy-7-[2-(6-methyl-pyridin-3-yl)-thiazol-4-yl]-benzothiazol-2-yl}-benzamide] | 230 to 250 °C
CCOC(=O)C(=O)Nc1nc2c(OC)ccc(-c3ccccc3)c2s1 [Example 47, N-(4-Methoxy-7-phenyl-benzothiazol-2-yl)-oxalamic acid ethyl ester] | 138 to 142 °C
COCCN(C)Cc1ccc(C(=O)Nc2nc3c(OC)ccc(-c4ccc(C)s4)c3s2)cc1 [Example 243, 4-{[(2-Methoxy-ethyl)-methyl-amino]-methyl}-N-[4-methoxy-7-(5-methyl-thiophen-2-yl)-benzothiazol-2-yl]-benzamide] | 83 to 90 °C
COc1ccc(-c2csc(-c3ccccn3)n2)c2sc(NC(=O)c3ccc(F)cc3)nc12 [Example 222, 4-Fluoro-N-[4-methoxy-7-(2-pyridin-2-yl-thiazol-4-yl)-benzothiazol-2-yl]-benzamide] | 150 °C (dec.)
COc1ccc(-c2csc(-c3ccccn3)n2)c2sc(NC(=O)c3ccc(CCl)cc3)nc12 [Example 232, 4-Chloromethyl-N-[4-methoxy-7-(2-pyridin-2-yl-thiazol-4-yl)-benzothiazol-2-yl]-benzamide] | 195 to 201 °C
COc1ccc(-c2csc(NC(c3ccccc3)(c3ccccc3)c3ccccc3)n2)c2sc(NC(=O)c3ccc(CCl)cc3)nc12 [Example 229, 4-Chloromethyl-N-{4-methoxy-7-[2-(trityl-amino)-thiazol-4-yl]-benzothiazol-2-yl}-benzamide] | 163 °C (dec.)
COc1ccc(-c2ccc(C)s2)c2sc(NC(=O)N3CCOCC3)nc12 [Example 264, Morpholine-4-carboxylic acid [4-methoxy-7-(5-methyl-thiophen-2-yl)-benzothiazol-2-yl]-amide] | 173 to 180 °C (dec.)
COc1ccc(-c2ccc(C)s2)c2sc(NC(=O)c3ccc(CCl)cc3)nc12 [Example 234, 4-Chloromethyl-N-[4-methoxy-7-(5-methyl-thiophen-2-yl)-benzothiazol-2-yl]-benzamide] | 130 to 146 °C
COc1ccc(-c2csc(N3CCN(C)CC3)n2)c2sc(NC(=O)c3ccc(F)cc3)nc12 [Example 221, 4-Fluoro-N-{4-methoxy-7-[2-(4-methyl-piperazin-1-yl)-thiazol-4-yl]-benzothiazol-2-yl}-benzamide] | 138 °C (dec.)
COc1ccc(-c2csc(N3CCN(C)CC3)n2)c2sc(NC(=O)N3CCOCC3)nc12 [Example 261, Morpholine-4-carboxylic acid {4-methoxy-7-[2-(4-methyl-piperazin-1-yl)-thiazol-4-yl]-benzothiazol-2-yl}-amide] | 150 to 170 °C
COc1ccc(-c2csc(N3CCCCC3)n2)c2sc(NC(=O)N3CCOCC3)nc12 [Example 262, Morpholine-4-carboxylic acid [4-methoxy-7-(2-piperidin-1-yl-thiazol-4-yl)-benzothiazol-2-yl]-amide] | 227 to 234 °C
COc1ccc(-c2csc(N3CCOCC3)n2)c2sc(NC(=O)c3ccc(F)cc3)nc12 [Example 216, 4-Fluoro-N-[4-methoxy-7-(2-morpholin-4-yl-thiazol-4-yl)-benzothiazol-2-yl]-benzamide] | 225 to 227 °C
COc1ccc(-c2cccs2)c2sc(NC(=O)c3ccc(CCl)cc3)nc12 [Example 231, 4-Chloromethyl-N-(4-methoxy-7-thiophen-2-yl-benzothiazol-2-yl)-benzamide] | 183 to 209 °C (dec.)
COc1ccc(-c2csc(N(C)C)n2)c2sc(NC(=O)c3ccc(F)cc3)nc12 [Example 219, N-[7-(2-Dimethylamino-thiazol-4-yl)-4-methoxy-benzothiazol-2-yl]-4-fluoro-benzamide] | 218 to 220 °C
COCCN(C)Cc1ccc(C(=O)Nc2nc3c(OC)ccc(-c4csc(C)n4)c3s2)cc1 [Example 242, 4-{[(2-Methoxy-ethyl)-methyl-amino]-methyl}-N-[4-methoxy-7-(2-methyl-thiazol-4-yl)-benzothiazol-2-yl]-benzamide] | 140 to 145 °C
COc1ccc(-c2csc(N)n2)c2sc(NC(=O)c3ccc(F)cc3)nc12 [Example 217, N-[7-(2-Amino-thiazol-4-yl)-4-methoxy-benzothiazol-2-yl]-4-fluoro-benzamide] | 262 to 264 °C
COc1ccc(-c2csc(C)n2)c2sc(NC(=O)c3ccc(F)cc3)nc12 [Example 224, 4-Fluoro-N-[4-methoxy-7-(2-methyl-thiazol-4-yl)-benzothiazol-2-yl]-benzamide] | 217 to 219 °C
COc1ccc(-c2ccc(C)s2)c2sc(NC(=O)N3CCC(O)CC3)nc12 [Example 266, 4-Hydroxy-piperidine-1-carboxylic acid [4-methoxy-7-(5-methyl-thiophen-2-yl)-benzothiazol-2-yl]-amide] | 197 to 204 °C (dec.)
COc1ccc(-c2ccc(C)s2)c2sc(NC(=O)c3ccc(F)cc3)nc12 [Example 225, 4-Fluoro-N-[4-methoxy-7-(5-methyl-thiophen-2-yl)-benzothiazol-2-yl]-benzamide] | 192 to 196 °C (dec.)
COCCN(C)Cc1ccc(C(=O)Nc2nc3c(OC)ccc(-c4csc(N(C)C)n4)c3s2)cc1 [Example 239, N-[7-(2-Dimethylamino-thiazol-4-yl)-4-methoxy-benzothiazol-2-yl]-4-{[(2-methoxy-ethyl)-methyl-amino]-methyl}-benzamide] | 85 to 95 °C
